A short description of this data set: MTT cytotoxicity assay. The class given is cell-based, human. As to conditions: human; neutrophil-differentiated HL-60 cells, 72 h, 100 µM. The procedure: To verify the cytotoxicity of the acrylonitrile derivatives, the MTT reduction method was performed. Briefly, HL-60 cells were seeded in a flat-bottomed 96-well plate at a density of 10,000 cells per well. […] In a second series of experiments, cells were incubated under the same conditions but for 72 h. Etoposide was used as a positive control. Ten μL of MTT was added at a final concentration of 0.5 mg/mL, incubated at 37 °C for 4 h, and then solubilized with 10% SDS in 0.1 mM HCl and incubated overnight at 37 °C. Finally, a blue-colored compound (formazan) formation was measured at 570 nm in a multiplate reader (StatFax 4200, Awareness Technology, Inc., Palm City, FL, USA). The viability percentage was obtained as follows: Viability % = [treated cells DO × 100]/[DO cells control].

One may read the viability as a per cent measure of how many cells are alive, often set against a control. For the compound `N#C/C(=C\c1cc(-c2ccccc2)on1)C(=O)c1c[nH]c2ccccc12` [Compound C6], the viability at 72 h, 100 µM was roughly 5%.

(Values after publication PMC10376059, “New NADPH Oxidase 2 Inhibitors Display Potent Activity against Oxidative Stress by Targeting p22^phox-p47^phox Interactions” (Antioxidants, 2023).)
